Test results reported in PMC3677712 (Bioorganic & medicinal chemistry letters, 2013).
Where two headings read alike, the source gives them in different places.

Assays:
[1] = tested on: ALK2 (Q207D); details: mouse model expressing a constitutively active form of ALK2 (Q207D); cited from earlier work
[2] = biological target: T1, AMPK (AMPK-A1/B1/G1) (Homo sapiens, UniProt Q13131); details: reference compounds previously run in these assays; cited from earlier work
[3] = biological target: T1, AMPK (AMPK-A1/B1/G1); assay: In vitro kinase assay; type: biochemical; details: 10-dose, 3-fold dilution from 100 μM, 10 μM ATP
[4] = Intrinsic clearance in hepatic microsomes; type: in vitro ADME; details: human
[5] = Intrinsic clearance in hepatic microsomes; type: in vitro ADME; details: rat
[6] = Intrinsic clearance in hepatic microsomes; type: in vitro ADME; details: mouse
[7] = predicted from microsomal intrinsic clearance

T1 sequence (Q13131 whole entry): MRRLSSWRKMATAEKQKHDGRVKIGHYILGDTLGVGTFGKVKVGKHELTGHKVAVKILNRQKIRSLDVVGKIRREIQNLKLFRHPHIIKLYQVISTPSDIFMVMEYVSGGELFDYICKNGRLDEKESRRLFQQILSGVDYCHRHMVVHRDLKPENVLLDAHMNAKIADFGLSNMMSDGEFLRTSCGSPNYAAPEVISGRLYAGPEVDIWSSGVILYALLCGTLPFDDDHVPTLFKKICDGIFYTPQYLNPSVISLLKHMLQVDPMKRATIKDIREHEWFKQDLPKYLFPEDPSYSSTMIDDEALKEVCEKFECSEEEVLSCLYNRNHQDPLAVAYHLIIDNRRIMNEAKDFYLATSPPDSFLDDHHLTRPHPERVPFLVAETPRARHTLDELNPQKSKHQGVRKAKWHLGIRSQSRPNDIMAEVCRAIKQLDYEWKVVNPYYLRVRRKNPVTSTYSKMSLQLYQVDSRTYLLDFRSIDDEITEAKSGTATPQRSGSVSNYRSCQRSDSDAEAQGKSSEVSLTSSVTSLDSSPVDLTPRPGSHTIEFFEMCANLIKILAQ
T1 sequence (Q9Y478 whole entry partner): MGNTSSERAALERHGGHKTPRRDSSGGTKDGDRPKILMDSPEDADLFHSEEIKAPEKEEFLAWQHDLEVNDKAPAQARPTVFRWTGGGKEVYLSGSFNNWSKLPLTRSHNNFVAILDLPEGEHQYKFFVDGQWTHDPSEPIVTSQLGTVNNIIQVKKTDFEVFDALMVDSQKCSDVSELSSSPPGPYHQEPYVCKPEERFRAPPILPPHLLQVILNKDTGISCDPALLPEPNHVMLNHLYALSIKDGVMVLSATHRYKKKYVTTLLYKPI
T1 sequence (P54619 whole entry partner): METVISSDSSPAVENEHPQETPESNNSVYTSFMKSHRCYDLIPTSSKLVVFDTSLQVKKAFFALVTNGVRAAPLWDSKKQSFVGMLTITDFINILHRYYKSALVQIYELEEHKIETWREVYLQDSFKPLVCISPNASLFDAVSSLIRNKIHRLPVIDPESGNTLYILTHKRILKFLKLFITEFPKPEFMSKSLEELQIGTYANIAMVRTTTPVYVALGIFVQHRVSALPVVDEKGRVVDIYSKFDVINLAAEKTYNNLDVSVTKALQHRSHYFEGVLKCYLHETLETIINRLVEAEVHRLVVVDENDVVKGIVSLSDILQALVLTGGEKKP

**Q.** Which “effect on ectopic ossification (in words)” value [1] does the source give for `c1ccc2c(-c3cnn4cc(-c5ccc(N6CCNCC6)cc5)cnc34)ccnc2c1` [LDN-193189, 2, LDN-193189] here?
**A.** The value was “could blunt ectopic ossification”.

**Q.** Which “IC50 AMPK” value [2] does the source give for `CC(C)Oc1ccc(-c2cnc3c(-c4ccnc5ccccc45)cnn3c2)cc1` [DMH1, 3, DMH1] here?
**A.** Its value is “Inactive”.

**Q.** With `COc1ccc(-c2cnc3c(-c4cccc5ncccc45)cnn3c2)cc1` [7g] as the molecule, how does the “IC50 AMPK” value [3] read?
**A.** The value was “Inactive”.

**Q.** And the CLint scaled ([4]; liver microsomes)?
**A.** Its CLint scaled is 516 mL/min/kg.

**Q.** And the CLHEP [4, 7]?
**A.** Its CLHEP is 20.2 mL/min/kg.

**Q.** And the CLint scaled ([5]; liver microsomes)?
**A.** Its CLint scaled is 148 mL/min/kg.

**Q.** And the CLHEP [5, 7]?
**A.** The CLHEP was 47.5 mL/min/kg.

**Q.** What about the CLint scaled ([6]; liver microsomes) of the same molecule?
**A.** Its CLint scaled is 617 mL/min/kg.

**Q.** And the CLHEP [6, 7]?
**A.** The CLHEP was 78.5 mL/min/kg.
